In patent US20240216344A1, “THIAZOLIDINEDIONE ANALOGS FOR THE TREATMENT OF NAFLD AND METABOLIC DISEASES” (Cirius Therapeutics, Inc., priority 2019, published 2024):

Assays:
[1] = tested on: mice fed a diet enriched in trans fat, cholesterol and fructose; experiment: Preclinical NASH model: trans fat, cholesterol and fructose diet for 19 weeks, NAS and fibrosis histology; format: in vivo; settings: 30 mg/kg; treatment of the mice or isolated hepatocytes
Protocol: Mice were fed a diet enriched in trans fat, cholesterol and fructose for 19 weeks to induce hepatic damage, which was assessed by histological changes in the NAS and fibrosis, measured by trichrome staining for collagen. MSDC-0602K (30 mg/kg) was given at either four weeks into the treatment or 16 weeks into the treatment as compared to the vehicle treated mice who were also on the modified diet. The results of mice who were kept on the normal diet are included for comparison. […] The signals for activation of the stellate cells and fibrosis are attenuated by treatment of the mice or isolated hepatocytes with MSDC-0602K.

patients with NASH [2] = experiment: Meta-analysis of 17 NASH clinical trials: change from baseline in LFTs and biomarkers by study arm, composite outcome; format: in vivo, human; settings: for % Change from Baseline ALT / % Change from Baseline AST / % Change from Baseline Alk Phos / % Change from Baseline CK-18 / % Change from Baseline ELF / % Change from Baseline GGT / % Change from Baseline HbA1c / % Change from Baseline Insulin: EMMINENCE, follow-up 12 months
Protocol: (§1) Meta-regressions of NASH clinical trials were performed to examine associations between biomarker and histological changes within treatment groups, and to additionally examine associations between treatment effects on biomarkers and on liver histology. Trials that met the following criteria were included: • Randomized controlled clinical trial • Paired biopsies performed at baseline and follow-up, scored using the NASH CRN system.
(§2) • Published results at baseline, follow-up, or changes from baseline for any the following liver injury markers or biomarkers: alanine aminotransferase (ALT), aspartate aminotransferase (AST), alkaline phosphatase, hemoglobin A1c (HbA1c), gamma-glutamyltransferase (GGT), insulin, cytokeratin-18 (CK-18), or Enhanced Liver Fibrosis (ELF) score. Variables selected were based on variables whose change was commonly reported in multiple studies. • Changes in histological scores for ballooning, inflammation, steatosis, and fibrosis, or the pre-determined endpoints of NASH resolution without worsening fibrosis or improvement in fibrosis with no worsening of NASH.
(§3) All results from a search of PubMed for the keywords (“nonalcoholic steatohepatitis” or “non-alcoholic steatohepatitis”) and (“clinical trial” or “randomized”) and filtered for “Clinical Trial” were reviewed. EudraCT and ClinicalTrials.gov were searched for the keyword “nonalcoholic steatohepatitis” with results further filtered for phase 2 or 3, interventional, terminated or completed trials. These three sources returned 265 (PubMed), 153 (ClinicalTrials.gov), and 56 (EudraCT) results, which were each individually reviewed for inclusion in the analysis. Data extracted by one analyst from each source that included means and SDs at baseline, end of study, and changes from baseline to end of study for continuous variables were verified and corrected by a second analyst. Where SDs were not available, any provided estimate of variation was used to derive the SD where possible; a plot-digitizer program was used where data were presented in figures only. Data for dichotomous endpoints were extracted as the number of subjects with the event and corresponding sample size.
(§4) Random effects weighted least squares meta-regressions with inverse variance weighting were used to examine the association of changes in ALT, AST, CK-18, HbA1c, fasting insulin levels, ELF, alkaline phosphatase and GGT with biopsy outcomes. CK-18[M30] was measured in all studies except EMMINENCE where CK-18[M651 was reported. These associations were assessed at an individual cohort level (within treatment group), as well as based on the treatment effect. Percent change from baseline in liver injury makers and biomarkers was used as the predictor when examining the associations in the individual cohorts with outcomes while the treatment ratio, the ratio of active to placebo with respect to the relative changes from baseline, was used as the predictor when assessing the association with the treatment effect on outcomes. Standardized mean changes (mean/SD) or standardized mean treatment differences (mean difference/pooled SD) were used for continuous outcomes and Freeman-Tukey double arcsine transformed proportions or log odds ratios were used for dichotomous outcomes. Meta-regression results were computed using the metafor package available in R. P-values <0.05 were considered statistically significant.
From the meta-regression results, ranks for the association with responses and treatment effects for each histologic outcome (changes in ballooning, inflammation, steatosis, and fibrosis; NASH resolution without worsening of fibrosis, and fibrosis improvement without worsening of NAS) were assigned across seven biomarkers (AST, GGT, HbA1c, insulin, CK-18, ELF, and alkaline phosphatase) for both the slope and the mediator p-value (ranks 1-7, with 7 assigned to the biomarker with the greatest slope or lowest p-value). An average rank across all outcomes was then assigned to each biomarker. […]

patients with NASH [3] = experiment: Meta-analysis of 17 NASH clinical trials: change from baseline in histological components and endpoint counts; format: in vivo, human; settings: EMMINENCE trial
Protocol: as §1, §2, §3
All studies included in the current meta-analysis used the NASH CRN histological scoring system for the scoring of the liver biopsy components. The two dichotomous endpoints considered were based on the currently approvable endpoints per FDA guidelines: NASH resolution without worsening of fibrosis, and fibrosis improvement without worsening of NASH.
as §4

COc1cccc(C(=O)COc2ccc(CC3SC(=O)NC3=O)cc2)c1 (centres unmarked) [MSDC-0602K]
signals for activation of the stellate cells and fibrosis [1]: attenuated | treatment effect on the surrogate endpoint (weighted average of changes in AST, CK-18, HbA1c) (patients with NASH [2]; 17 NASH clinical trials): largest treatment effects | % Change from Baseline ALT (patients with NASH [2]; 62.5 mg): −15.71% | % Change from Baseline AST (patients with NASH [2]; 62.5 mg): −8.08% | % Change from Baseline Alk Phos (patients with NASH [2]; 62.5 mg): −6.28% | % Change from Baseline CK-18 (patients with NASH [2]; 62.5 mg): −7.08% | % Change from Baseline ELF (patients with NASH [2]; 62.5 mg): 1.16% | % Change from Baseline GGT (patients with NASH [2]; 62.5 mg): −17.56% | % Change from Baseline HbA1c (patients with NASH [2]; 62.5 mg): −4.16% | % Change from Baseline Insulin (patients with NASH [2]; 62.5 mg): −10.85% | % Change from Baseline ALT (patients with NASH [2]; 125 mg): −28.13% | % Change from Baseline AST (patients with NASH [2]; 125 mg): −21.90% | % Change from Baseline Alk Phos (patients with NASH [2]; 125 mg): −10.70% | % Change from Baseline CK-18 (patients with NASH [2]; 125 mg): −22.13% | % Change from Baseline ELF (patients with NASH [2]; 125 mg): 0.09% | % Change from Baseline GGT (patients with NASH [2]; 125 mg): −13.47% | % Change from Baseline HbA1c (patients with NASH [2]; 125 mg): −3.79% | % Change from Baseline Insulin (patients with NASH [2]; 125 mg): −30.08% | % Change from Baseline ALT (patients with NASH [2]; 250 mg): −23.82% | % Change from Baseline AST (patients with NASH [2]; 250 mg): −11.81% | % Change from Baseline Alk Phos (patients with NASH [2]; 250 mg): −18.74% | % Change from Baseline CK-18 (patients with NASH [2]; 250 mg): −8.61% | % Change from Baseline ELF (patients with NASH [2]; 250 mg): 0.89% | % Change from Baseline GGT (patients with NASH [2]; 250 mg): −28.14% | % Change from Baseline HbA1c (patients with NASH [2]; 250 mg): −3.89% | % Change from Baseline Insulin (patients with NASH [2]; 250 mg): −30.62% | Change from Baseline, mean: Ballooning (patients with NASH [3]; MSDC-0602K 62.5 mg): −0.36 | Change from Baseline, mean: Fibrosis (patients with NASH [3]; MSDC-0602K 62.5 mg): 0.06 | Change from Baseline, mean: Inflammation (patients with NASH [3]; MSDC-0602K 62.5 mg): −0.08 | Change from Baseline, mean: Steatosis (patients with NASH [3]; MSDC-0602K 62.5 mg): −0.57 | Fibrosis Improvement (patients with NASH [3]; MSDC-0602K 62.5 mg): 20/99 | NASH Resolution (patients with NASH [3]; MSDC-0602K 62.5 mg): 17/99 | Change from Baseline, mean: Ballooning (patients with NASH [3]; MSDC-0602K 125 mg): −0.42 | Change from Baseline, mean: Fibrosis (patients with NASH [3]; MSDC-0602K 125 mg): −0.12 | Change from Baseline, mean: Inflammation (patients with NASH [3]; MSDC-0602K 125 mg): −0.22 | Change from Baseline, mean: Steatosis (patients with NASH [3]; MSDC-0602K 125 mg): −0.51 | Fibrosis Improvement (patients with NASH [3]; MSDC-0602K 125 mg): 23/98 | NASH Resolution (patients with NASH [3]; MSDC-0602K 125 mg): 23/98 | Change from Baseline, mean: Ballooning (patients with NASH [3]; MSDC-0602K 250 mg): −0.38 | Change from Baseline, mean: Fibrosis (patients with NASH [3]; MSDC-0602K 250 mg): −0.06 | Change from Baseline, mean: Inflammation (patients with NASH [3]; MSDC-0602K 250 mg): −0.12 | Change from Baseline, mean: Steatosis (patients with NASH [3]; MSDC-0602K 250 mg): −0.67 | Fibrosis Improvement (patients with NASH [3]; MSDC-0602K 250 mg): 25/101 | NASH Resolution (patients with NASH [3]; MSDC-0602K 250 mg): 27/101
